Data on 9 cell lines can be found in the supplement of paper PMC10307832.

Holding throughout (experiment): relative viability (nuclei count vs DMSO), 5 days (fraction); higher = more cells survive
Compound in experiment [1]: Cc1ccc(F)c(NC(=O)Nc2ccc(-c3cccc4[nH]nc(N)c34)cc2)c1 [Linifanib] + Nc1nc2[nH]cc(CCc3ccc(C(=O)N[C@@H](CCC(=O)O)C(=O)O)cc3)c2c(=O)[nH]1 [Pemetrexed] (partner 0.2 µM)
The gist of the method:
(§1)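 Relative viability equals treated-well nuclei counts divided by vehicle-well nuclei counts. Counts came from 4× images of lung cancer cell lines grown in 1536-well plates for 5 days after pin-tool dosing on the day after seeding. Dosing used one drug alone or a fixed anchor-drug dose plus five library-drug doses (not always all listed) in √10 steps, and values are medians of duplicate plates.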

Compound in experiment [2]: Cc1ccc(F)c(NC(=O)Nc2ccc(-c3cccc4[nH]nc(N)c34)cc2)c1 [Linifanib] + Cc1cc(Nc2cc(N3CCN(C)CC3)nc(Sc3ccc(NC(=O)C4CC4)cc3)n2)n[nH]1 [Tozasertib] (partner 0.1 µM)
In short, it runs like this:
as §1

Compound in experiment [3]: Cc1ccc(F)c(NC(=O)Nc2ccc(-c3cccc4[nH]nc(N)c34)cc2)c1 [Linifanib] + C[C@@H](Oc1cc(-c2cnn(C3CCNCC3)c2)cnc1N)c1c(Cl)ccc(F)c1Cl [Crizotinib] (partner 1 µM)
The gist of the method:
as §1

Compound in experiment [4]: Cc1ccc(F)c(NC(=O)Nc2ccc(-c3cccc4[nH]nc(N)c34)cc2)c1 [Linifanib] + O=C(c1cc(Cc2n[nH]c(=O)c3ccccc23)ccc1F)N1CCN(C(=O)C2CC2)CC1 [Olaparib] (partner 8 µM)
The gist of the method:
as §1

Compound in experiment [5]: Cc1ccc(F)c(NC(=O)Nc2ccc(-c3cccc4[nH]nc(N)c34)cc2)c1 [Linifanib] + NC(=O)Nc1cc(-c2cccc(F)c2)sc1C(=O)N[C@H]1CCCNC1 [AZD7762] (partner 0.2 µM)
In short, it runs like this: as §1

Compound in experiment [6]: Cc1ccc(F)c(NC(=O)Nc2ccc(-c3cccc4[nH]nc(N)c34)cc2)c1 [Linifanib] + CC1(C)CCC(c2ccc(Cl)cc2)=C(CN2CCN(c3ccc(C(=O)NS(=O)(=O)c4ccc(N[C@H](CCN5CCOCC5)CSc5ccccc5)c(S(=O)(=O)C(F)(F)F)c4)cc3)CC2)C1 [Navitoclax] (partner 0.5 µM)
In short, it runs like this: as §1

As to LCLC-103H, the relative viability came to 0.477 in experiment [1] (first compound 0.03162 µM); 0.469 in experiment [1] (first compound 0.1 µM); 0.458 in experiment [1] (first compound 0.3162 µM); 0.482 in experiment [2] (first compound 0.03162 µM); 0.461 in experiment [2] (first compound 0.1 µM); 0.423 in experiment [2] (first compound 0.3162 µM). The relative viability in experiment [3] (first compound 0.03162 µM) worked out at 1.05; in experiment [3] (first compound 0.1 µM) it was 1.2; in experiment [3] (first compound 0.3162 µM), 0.943; in experiment [4] (first compound 0.03162 µM), 0.752; in experiment [4] (first compound 0.1 µM) it was 0.78; in experiment [4] (first compound 0.3162 µM) it was 0.732. Moreover, the relative viability amounted to 0.892 in experiment [5] (first compound 0.03162 µM), 0.721 in experiment [5] (first compound 0.1 µM) and 0.792 in experiment [5] (first compound 0.3162 µM).

On to 201T, for which the relative viability in experiment [1] (first compound 0.03162 µM) turned out to be 0.317; in experiment [1] (first compound 0.1 µM) it was 0.309; in experiment [1] (first compound 0.3162 µM) it was 0.317; in experiment [2] (first compound 0.03162 µM), 0.971; in experiment [2] (first compound 0.1 µM), 0.965; in experiment [2] (first compound 0.3162 µM), 0.942. Also, the relative viability in experiment [3] (first compound 0.03162 µM) turned out to be 0.999; in experiment [3] (first compound 0.1 µM) it was 1.02; in experiment [3] (first compound 0.3162 µM) it was 1.04; in experiment [4] (first compound 0.03162 µM), 0.839; in experiment [4] (first compound 0.1 µM), 0.825; in experiment [4] (first compound 0.3162 µM) it was 0.842. The relative viability is 0.603 in experiment [5] (first compound 0.03162 µM); 0.606 in experiment [5] (first compound 0.1 µM); 0.654 in experiment [5] (first compound 0.3162 µM); 1.2 in experiment [6] (first compound 0.03162 µM); 1.23 in experiment [6] (first compound 0.1 µM); 1.21 in experiment [6] (first compound 0.3162 µM).

In the case of NCI-H1792, the relative viability in experiment [1] (first compound 0.03162 µM) was determined as 1.03; in experiment [1] (first compound 0.1 µM) it was 1; in experiment [1] (first compound 0.3162 µM), 0.724; in experiment [3] (first compound 0.03162 µM) it was 0.941; in experiment [3] (first compound 0.1 µM) it was 1.06; in experiment [3] (first compound 0.3162 µM) it was 0.984. In addition, the relative viability came out at 0.337 in experiment [4] (first compound 0.03162 µM); 0.532 in experiment [4] (first compound 0.1 µM); 0.375 in experiment [4] (first compound 0.3162 µM); 0.789 in experiment [5] (first compound 0.03162 µM); 0.757 in experiment [5] (first compound 0.1 µM); 0.588 in experiment [5] (first compound 0.3162 µM). The relative viability in experiment [6] (first compound 0.03162 µM) was found to be 0.692; in experiment [6] (first compound 0.1 µM), 0.621; in experiment [6] (first compound 0.3162 µM) it was 0.639.

With LXF-289, the relative viability in experiment [1] (first compound 0.03162 µM) came to 0.97; in experiment [1] (first compound 0.1 µM), 0.906; in experiment [1] (first compound 0.3162 µM), 0.853; in experiment [2] (first compound 0.03162 µM) it was 0.185; in experiment [2] (first compound 0.1 µM), 0.173; in experiment [2] (first compound 0.3162 µM), 0.172. Further, the relative viability in experiment [3] (first compound 0.03162 µM) is 0.887; in experiment [3] (first compound 0.1 µM), 0.855; in experiment [3] (first compound 0.3162 µM) it was 0.742; in experiment [4] (first compound 0.03162 µM) it was 1.13; in experiment [4] (first compound 0.1 µM) it was 1.2; in experiment [4] (first compound 0.3162 µM) it was 0.898. Also, the relative viability in experiment [5] (first compound 0.03162 µM) turned out to be 1.11; in experiment [5] (first compound 0.1 µM), 1.15; in experiment [5] (first compound 0.3162 µM), 0.934; in experiment [6] (first compound 0.03162 µM) it was 0.936; in experiment [6] (first compound 0.1 µM) it was 0.953; in experiment [6] (first compound 0.3162 µM), 0.883.

Take LCLC-97TM1: the relative viability in experiment [1] (first compound 0.03162 µM) is 0.202; in experiment [1] (first compound 0.1 µM), 0.16; in experiment [1] (first compound 0.3162 µM), 0.146; in experiment [2] (first compound 0.03162 µM) it was 0.205; in experiment [2] (first compound 0.1 µM), 0.231; in experiment [2] (first compound 0.3162 µM), 0.189. In addition, the relative viability in experiment [3] (first compound 0.03162 µM) amounted to 0.43; in experiment [3] (first compound 0.1 µM), 0.456; in experiment [3] (first compound 0.3162 µM), 0.362; in experiment [4] (first compound 0.03162 µM) it was 0.453; in experiment [4] (first compound 0.1 µM), 0.402; in experiment [4] (first compound 0.3162 µM) it was 0.502. Besides, the relative viability in experiment [5] (first compound 0.03162 µM) came to 0.262; in experiment [5] (first compound 0.1 µM), 0.229; in experiment [5] (first compound 0.3162 µM), 0.29; in experiment [6] (first compound 0.03162 µM), 0.436; in experiment [6] (first compound 0.1 µM), 0.417; in experiment [6] (first compound 0.3162 µM), 0.321.

Consider NCI-H1395, for which the relative viability in experiment [1] (first compound 0.03162 µM) turned out to be 0.92; in experiment [1] (first compound 0.1 µM) it was 1.02; in experiment [1] (first compound 0.3162 µM) it was 0.825; in experiment [2] (first compound 0.03162 µM), 0.691; in experiment [2] (first compound 0.1 µM) it was 0.725; in experiment [2] (first compound 0.3162 µM) it was 0.729. For the same cell line, the relative viability was 0.462 in experiment [4] (first compound 0.03162 µM); 0.463 in experiment [4] (first compound 0.1 µM); 0.461 in experiment [4] (first compound 0.3162 µM); 0.39 in experiment [5] (first compound 0.03162 µM); 0.431 in experiment [5] (first compound 0.1 µM); 0.395 in experiment [5] (first compound 0.3162 µM). Moreover, the relative viability in experiment [6] (first compound 0.03162 µM) amounted to 1.19; in experiment [6] (first compound 0.1 µM), 1.17; in experiment [6] (first compound 0.3162 µM), 1.21.

As to CAL-12T, the relative viability amounted to 1.2 in experiment [1] (first compound 0.03162 µM); 1.27 in experiment [1] (first compound 0.1 µM); 1.18 in experiment [1] (first compound 0.3162 µM); 0.333 in experiment [2] (first compound 0.03162 µM); 0.348 in experiment [2] (first compound 0.1 µM); 0.355 in experiment [2] (first compound 0.3162 µM). Moreover, the relative viability in experiment [3] (first compound 0.03162 µM) worked out at 0.835; in experiment [3] (first compound 0.1 µM), 0.692; in experiment [3] (first compound 0.3162 µM), 0.698; in experiment [4] (first compound 0.03162 µM) it was 0.642; in experiment [4] (first compound 0.1 µM), 0.703; in experiment [4] (first compound 0.3162 µM), 0.702. For the same cell line, the relative viability in experiment [5] (first compound 0.03162 µM) worked out at 0.623; in experiment [5] (first compound 0.1 µM) it was 0.661; in experiment [5] (first compound 0.3162 µM) it was 0.588; in experiment [6] (first compound 0.03162 µM), 1.18; in experiment [6] (first compound 0.1 µM), 1.21; in experiment [6] (first compound 0.3162 µM), 1.04.

NCI-H1975: the relative viability was determined as 0.293 in experiment [1] (first compound 0.03162 µM); 0.317 in experiment [1] (first compound 0.1 µM); 0.278 in experiment [1] (first compound 0.3162 µM); 0.681 in experiment [2] (first compound 0.03162 µM); 0.901 in experiment [2] (first compound 0.1 µM); 0.722 in experiment [2] (first compound 0.3162 µM). Moreover, the relative viability in experiment [3] (first compound 0.03162 µM) amounted to 1; in experiment [3] (first compound 0.1 µM), 1.02; in experiment [3] (first compound 0.3162 µM), 0.984; in experiment [4] (first compound 0.03162 µM), 0.797; in experiment [4] (first compound 0.1 µM), 0.881; in experiment [4] (first compound 0.3162 µM), 0.796. The relative viability was 0.688 in experiment [5] (first compound 0.03162 µM); 0.706 in experiment [5] (first compound 0.1 µM); 0.618 in experiment [5] (first compound 0.3162 µM); 1.05 in experiment [6] (first compound 0.03162 µM); 1.22 in experiment [6] (first compound 0.1 µM); 1.08 in experiment [6] (first compound 0.3162 µM).

In the case of NCI-H1793, the relative viability came out at 0.939 in experiment [1] (first compound 0.03162 µM); 1.17 in experiment [1] (first compound 0.1 µM); 1.07 in experiment [1] (first compound 0.3162 µM); 0.253 in experiment [2] (first compound 0.03162 µM); 0.467 in experiment [2] (first compound 0.1 µM); 0.372 in experiment [2] (first compound 0.3162 µM). Moreover, the relative viability in experiment [4] (first compound 0.03162 µM) stood at 0.848; in experiment [4] (first compound 0.1 µM), 1.13; in experiment [4] (first compound 0.3162 µM), 0.802; in experiment [5] (first compound 0.03162 µM), 0.269; in experiment [5] (first compound 0.1 µM), 0.844; in experiment [5] (first compound 0.3162 µM) it was 0.541. In addition, the relative viability in experiment [6] (first compound 0.03162 µM) was 0.553; in experiment [6] (first compound 0.1 µM), 0.429; in experiment [6] (first compound 0.3162 µM), 0.444.
